The values that follow come from patent US5629288A, “Lipopeptide derivatives, a process for their preparation and their use” (Hoechst Aktiengesellschaft, priority 1994, dated 1997).

The data set deals with venous blood from rhesus monkeys. In words: Hemolytic activity in vitro (standard hemolysis test). It counts as cell-based. To be noted: for Hemolysis (%): fresh heparinized rhesus monkey blood, 37° C., 3 hours, absorption at 540 nm, % of maximum inducible hemolysis (distilled water = 100%), dilutions 1600-3.125 mg/l, concentration behind the value not stated; for hemolysis in the standard hemolysis test (in words): rhesus monkey blood. As for the experimental part: 2) Freshly removed venous blood from rhesus monkeys is used to measure the hemolytic activity. The blood is collected in heparinized tubes and 200 μl aliquots are distributed over 12 polyethylene tubes. 200 μl of distilled water are added to one aliquot, which serves as 100% standard, and another is mixed with 200 μl of physiological saline (0.9% NaCl) (0% standard). 200 μl portions of substance dilutions in physiological saline containing 1600, 800, 400, 200, 100, 50, 25, 12.5, 6.25 and 3.125 mg/l are distributed over the other tubes. All the tubes are cautiously swirled and incubated at 37° C. for 3 hours. Subsequently 100% standard is made up with 5 ml of distilled water, and the others are each made up with 5 ml of physiological saline and centrifuged at 700 g for 5 minutes.
The hemolysis is determined by measuring the absorption of the supernatant in a spectrophotometer at a wavelength of 540 nm. The absorption of the standard with complete hemolysis (distilled water) is set equal to 100%. The absorptions of the test product dilutions and of the 0% standard are measured and reported as a percentage of the maximum inducible hemolysis.

With `CCCCCCCCCCCCC(=O)NC(CC(=O)O)C(=O)NC1C(=O)N2CCCCC2C(=O)NC(C(C)C(=O)O)C(=O)NC(CC(=O)O)C(=O)NCC(=O)NC(CC(=O)O)C(=O)NCC(=O)NC(C(C)N)C(=O)NC(C(C)C)C(=O)N2CCCC2C(=O)NC1C` (centres unmarked) [Example 1, Tridecanoyl Derivative of A 1437 Cyclic Peptide], the “Hemolysis (%)” value was determined as 19.6%.
The same measure, in the same setting: under `CCCCCCCCCCC(=O)NC(CC(=O)O)C(=O)NC1C(=O)N2CCCCC2C(=O)NC(C(C)C(=O)O)C(=O)NC(CC(=O)O)C(=O)NCC(=O)NC(CC(=O)O)C(=O)NCC(=O)NC(C(C)N)C(=O)NC(C(C)C)C(=O)N2CCCC2C(=O)NC1C` (centres unmarked) [Example 6] stands 16.5%.
Still for that read-out and setting: under `CCCCCCCCCCCC(=O)NC(CC(=O)O)C(=O)NC1C(=O)N2CCCCC2C(=O)NC(C(C)C(=O)O)C(=O)NC(CC(=O)O)C(=O)NCC(=O)NC(CC(=O)O)C(=O)NCC(=O)NC(C(C)N)C(=O)NC(C(C)C)C(=O)N2CCCC2C(=O)NC1C` (centres unmarked) [Example 7] stands 25.7%; under `CCCCCCCCCCCCCC(=O)NC(CC(=O)O)C(=O)NC1C(=O)N2CCCCC2C(=O)NC(C(C)C(=O)O)C(=O)NC(CC(=O)O)C(=O)NCC(=O)NC(CC(=O)O)C(=O)NCC(=O)NC(C(C)N)C(=O)NC(C(C)C)C(=O)N2CCCC2C(=O)NC1C` (centres unmarked) [Example 8], 19.3%; under `CCCCCCCCCCCCCCC(=O)NC(CC(=O)O)C(=O)NC1C(=O)N2CCCCC2C(=O)NC(C(C)C(=O)O)C(=O)NC(CC(=O)O)C(=O)NCC(=O)NC(CC(=O)O)C(=O)NCC(=O)NC(C(C)N)C(=O)NC(C(C)C)C(=O)N2CCCC2C(=O)NC1C` (centres unmarked) [Example 9], 22.8%.
Same read-out and setting: in the case of `CC(C)CCCCCCCCCCC(=O)NC(CC(=O)O)C(=O)NC1C(=O)N2CCCCC2C(=O)NC(C(C)C(=O)O)C(=O)NC(CC(=O)O)C(=O)NCC(=O)NC(CC(=O)O)C(=O)NCC(=O)NC(C(C)N)C(=O)NC(C(C)C)C(=O)N2CCCC2C(=O)NC1C` (centres unmarked) [Example 14] it was 22.9%; in that of `CCCCCCCc1ccc(C(=O)NC(CC(=O)O)C(=O)NC2C(=O)N3CCCCC3C(=O)NC(C(C)C(=O)O)C(=O)NC(CC(=O)O)C(=O)NCC(=O)NC(CC(=O)O)C(=O)NCC(=O)NC(C(C)N)C(=O)NC(C(C)C)C(=O)N3CCCC3C(=O)NC2C)cc1` (centres unmarked) [Example 49], 0.0%.
Regarding `CC(C)C1NC(=O)C(C(C)N)NC(=O)CNC(=O)C(CC(=O)O)NC(=O)CNC(=O)C(CC(=O)O)NC(=O)C(C(C)C(=O)O)NC(=O)C2CCCCN2C(=O)C(NC(=O)C(CC(=O)O)NC(=O)c2ccc(CCc3ccc(-c4ccccc4)cc3)cc2)C(C)NC(=O)C2CCCN2C1=O` (centres unmarked) [Example 55], the “Hemolysis (%)” value came to 0.5% and the “hemolysis in the standard hemolysis test (in words)” value is listed as “virtually no evidence of hemolysis”.
The corresponding values for `CC(C)C1NC(=O)C(C(C)N)NC(=O)CNC(=O)C(CC(=O)O)NC(=O)CNC(=O)C(CC(=O)O)NC(=O)C(C(C)C(=O)O)NC(=O)C2CCCCN2C(=O)C(NC(=O)C(CC(=O)O)NC(=O)c2ccc(CCc3ccc(CCc4ccccc4)cc3)cc2)C(C)NC(=O)C2CCCN2C1=O` (centres unmarked) [Example 56] are 0.4% and “virtually no evidence of hemolysis”.
